Laboratory results taken from patent US8134015B2, “Compound inhibiting in vivo phosphorous transport and medicine containing the same” (Kyowa Hakko Kirin Co., Ltd., priority 2003, dated 2012).

Each molecule was assayed against T1, rat NaPi-2b (Rattus norvegicus, UniProt Q9JJ09) (assay: Sodium-dependent phosphate uptake of Xenopus oocytes which expressed NaPi-2b (32P)). Details: Xenopus oocytes expressing rat NaPi-2b, 32P radioactive phosphorus; read-out: IC50 (phosphate uptake inhibitory activity).
T1 construct: expressed in transfected cells; host or cells: Xenopus oocytes injected with cRNA
T1 sequence (Q9JJ09 1-695): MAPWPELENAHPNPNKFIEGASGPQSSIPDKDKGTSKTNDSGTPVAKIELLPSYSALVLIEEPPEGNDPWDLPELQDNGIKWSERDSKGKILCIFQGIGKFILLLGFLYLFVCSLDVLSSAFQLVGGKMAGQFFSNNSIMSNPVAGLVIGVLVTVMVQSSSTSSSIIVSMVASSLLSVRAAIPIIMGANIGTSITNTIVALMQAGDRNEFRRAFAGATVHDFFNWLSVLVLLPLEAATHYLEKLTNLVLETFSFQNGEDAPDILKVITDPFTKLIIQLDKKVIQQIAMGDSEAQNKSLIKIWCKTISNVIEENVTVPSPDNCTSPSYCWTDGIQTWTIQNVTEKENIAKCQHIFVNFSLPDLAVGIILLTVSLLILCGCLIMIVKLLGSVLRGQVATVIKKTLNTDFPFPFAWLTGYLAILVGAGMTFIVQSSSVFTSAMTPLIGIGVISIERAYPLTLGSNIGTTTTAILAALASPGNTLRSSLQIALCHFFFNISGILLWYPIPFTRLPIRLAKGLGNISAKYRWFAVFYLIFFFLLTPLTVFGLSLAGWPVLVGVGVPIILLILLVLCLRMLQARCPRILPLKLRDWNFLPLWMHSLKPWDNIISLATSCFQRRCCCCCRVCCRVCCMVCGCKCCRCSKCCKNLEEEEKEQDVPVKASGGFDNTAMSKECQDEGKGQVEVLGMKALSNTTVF
Assay type: cell-based
Method: Pharmacological Test Example 1
Experiment of Sodium-Dependent Phosphate Uptake of Xenopus oocytes which Expressed NaPi-2b
Degenerate primers were prepared from sequences of mouse NaPi-2b disclosed in Hilfiker H. et al., Pro Natl Acad Sci USA, 95 (24): 14564-14569, […] and sequences of human and rat NaPi-2a disclosed in Magagnin S. et al., Proc Natl Aca Sci USA, 90 (13): 5979-5983, 1993. RNA was extracted from the rat small intestine using ISOGEN; manufactured by NIPPON GENE CO., LTD (Japan). 400 bp gene fragments were obtained by PCR using, as a template, a cDNA library prepared with a cDNA synthesis kit (manufactured by STRATAGENE (US)). Thereafter, the above rat small intestine cDNA library was screened using the gene fragment as a probe, and the whole gene sequence of rat NaPi-2b was cloned. cRNA was synthesized from the cloned rat NaPi-2b cDNA with a cRNA synthesis kit (manufactured by Ambion (US)). The synthesized cRNA was injected into Xenopus oocytes (obtained from COPACETIC (Japan)) with a liquid microinjector (manufactured by Drummond (US)) and was cultured for 2 days to express rat NaPi-2b. Thereafter, for a group of derivatives, phosphate uptake inhibitory activity were measured using the Xenopus oocytes with ^32P radioactive phosphorus (manufactured by Daiichi Kagaku Inc. (Japan)). […] The inhibitory activity for 300 μM and 100 μM was determined from the same inhibition curve and expressed in percentage inhibition (%) in Table 5.

| Structure (SMILES) | IC50 [µM] |
| --- | --- |
| COc1ccc(C(=O)Nc2ccccc2C(=O)N/N=C/c2ccccc2C)cc1OC [Compound 3, 3,4-Dimethoxy-N-[2-(2-methyl-benzylidene-hydrazinocarbonyl)-phenyl]-benzamide] | 7.15 |
| COc1ccccc1/C=N/NC(=O)c1ccccc1NC(=O)c1ccc(OC)c(OC)c1 [Compound 4, 3,4-Dimethoxy-N-[2-(2-methoxy-benzylidene-hydrazinocarbonyl)-phenyl]-benzamide] | 79.9 |
| COc1cccc(/C=N/NC(=O)c2ccccc2NC(=O)c2ccc(OC)c(OC)c2)c1 [Compound 5, 3,4-Dimethoxy-N-[2-(3-methoxy-benzylidene-hydrazinocarbonyl)-phenyl]-benzamide] | 3.31 |
| COc1ccc(C(=O)Nc2ccccc2C(=O)N/N=C/c2cc(C(C)(C)C)c(O)c(C(C)(C)C)c2)cc1OC [Compound 6, N-[2-(3,5-Di-tert-butyl-4-hydroxy-benzylidene-hydrazinocarbonyl)-phenyl]-3,4-dimethoxy-benzamide] | 5.38 |
| COc1ccc(C(=O)Nc2ccccc2C(=O)N/N=C/C(C)=C/c2ccccc2)cc1OC [Compound 7, 3,4-Dimethoxy-N-[2-(2-methyl-3-phenyl-allylidene-hydrazinocarbonyl)-phenyl]-benzamide] | 7.15 |
| COc1ccc(C(=O)Nc2ccccc2C(=O)N/N=C/c2cc(C(F)(F)F)cc(C(F)(F)F)c2)cc1OC [Compound 8, N-[2-(3,5-Bis-trifluoromethyl-benzylidene-hydrazinocarbonyl)-phenyl]-3,4-dimethoxy-benzamide] | 1.72 |
| COc1ccc(C(=O)Nc2ccccc2C(=O)N/N=C/c2cccc(C#N)c2)cc1OC [Compound 9, N-[2-(3-Cyano-benzylidene-hydrazinocarbonyl)-phenyl]-3,4-dimethoxy-benzamide] | 4.26 |
| COc1ccc(C(=O)Nc2ccccc2C(=O)N/N=C/c2ccccc2Br)cc1OC [Compound 10, N-[2-(2-Bromo-benzylidene-hydrazinocarbonyl)-phenyl]-3,4-dimethoxy-benzamide] | 26.1 |
| COc1cc(/C=N/NC(=O)c2ccccc2NC(=O)c2ccc(OC)c(OC)c2)ccc1O [Compound 11, N-[2-(4-Hydroxy-3-methoxy-benzylidene-hydrazinocarbonyl)-phenyl]-3,4-dimethoxy-benzamide] | 8.21 |
| COc1ccc(C(=O)Nc2ccccc2C(=O)N/N=C/c2cc(OC)c(OC)c(OC)c2)cc1OC [Compound 12, 3,4-Dimethoxy-N-[2-(3,4,5-trimethoxy-benzylidene-hydrazinocarbonyl)-phenyl]-benzamide] | 4.51 |
| COc1ccc(C(=O)Nc2ccc(Br)cc2C(=O)N/N=C/C=C/c2ccccc2)cc1OC [Compound 13, N-[4-Bromo-2-(3-phenyl-allylidene-hydrazinocarbonyl)-phenyl]-3,4-dimethoxy-benzamide] | 9.22 |
| COc1ccc(C(=O)Nc2ccc(Br)cc2C(=O)N/N=C/c2ccccc2Br)cc1OC [Compound 14, N-[4-Bromo-2-(2-bromo-benzylidene-hydrazinocarbonyl)-phenyl]-3,4-dimethoxy-benzamide] | 12.1 |
| COc1ccc(C(=O)Nc2ccccc2C(=O)N/N=C/c2cccc(F)c2)cc1OC [Compound 15, N-[2-(3-Fluoro-benzylidene-hydrazinocarbonyl)-phenyl]-3,4-dimethoxy-benzamide] | 1.41 |
| COc1ccc(C(=O)Nc2ccccc2C(=O)N/N=C/c2ccc(F)cc2)cc1OC [Compound 16, N-[2-(4-Fluoro-benzylidene-hydrazinocarbonyl)-phenyl]-3,4-dimethoxy-benzamide] | 2.3 |
| COc1ccc(C(=O)Nc2ccccc2C(=O)N/N=C/c2ccccc2)cc1OC [Compound 17, N-[2-(Benzylidene-hydrazinocarbonyl)-phenyl]-3,4-dimethoxy-benzamide] | 3.59 |
| COc1ccc(C(=O)Nc2ccccc2C(=O)N/N=C/c2cccc(O)c2)cc1OC [Compound 18, N-[2-(3-Hydroxy-benzylidene-hydrazinocarbonyl)-phenyl]-3,4-dimethoxy-benzamide] | 4.03 |

| Structure (SMILES) | IC50 [µM] |
| --- | --- |
| COc1ccc(C(=O)Nc2ccccc2C(=O)N/N=C/c2ccc(O)cc2)cc1OC [Compound 19, N-[2-(4-Hydroxy-benzylidene-hydrazinocarbonyl)-phenyl]-3,4-dimethoxy-benzamide] | 8.16 |
| COc1ccc(C(=O)Nc2ccccc2C(=O)N/N=C/c2cccc(C)c2)cc1OC [Compound 20, 3,4-Dimethoxy-N-[2-(3-methyl-benzylidene-hydrazinocarbonyl)-phenyl]-benzamide] | 2.83 |
| COc1ccc(C(=O)Nc2ccccc2C(=O)N/N=C/c2ccco2)cc1OC [Compound 21, N-[2-(Furan-2-ylmethylene-hydrazinocarbonyl)-phenyl]-3,4-dimethoxy-benzamide] | 21.5 |
| COc1ccc(C(=O)Nc2ccccc2C(=O)N/N=C/c2ccc(C)o2)cc1OC [Compound 22, 3,4-Dimethoxy-N-[2-(5-methyl-furan-2-ylmethylene-hydrazinocarbonyl)-phenyl]-benzamide] | 26.7 |
| COc1ccc(C(=O)Nc2ccccc2C(=O)N/N=C/c2cccs2)cc1OC [Compound 23, 3,4-Dimethoxy-N-[2-(thiophen-2-ylmethylene-hydrazinocarbonyl)-phenyl]-benzamide] | 9.88 |
| COc1ccc(C(=O)Nc2ccccc2C(=O)N/N=C/c2ccsc2)cc1OC [Compound 24, 3,4-Dimethoxy-N-[2-(thiophen-3-ylmethylene-hydrazinocarbonyl)-phenyl]-benzamide] | 20.9 |
| COc1ccc(C(=O)Nc2ccccc2C(=O)N/N=C/c2ccc(O)cc2O)cc1OC [Compound 25, N-[2-(2,4-Dihydroxy-benzylidene-hydrazinocarbonyl)-phenyl]-3,4-dimethoxy-benzamide] | 23.9 |
| COc1ccc(C(=O)Nc2ccccc2C(=O)N/N=C/c2ccc(O)c(O)c2)cc1OC [Compound 26, N-[2-(3,4-Dihydroxy-benzylidene-hydrazinocarbonyl)-phenyl]-3,4-dimethoxy-benzamide] | 25.4 |
| O=C(Nc1ccccc1C(=O)N/N=C/c1ccccc1)c1ccccc1F [Compound 27, N-[2-(Benzylidene-hydrazinocarbonyl)-phenyl]-2-fluoro-benzamide] | 3.63 |
| COc1ccc(C(=O)Nc2ccc(Br)cc2C(=O)N/N=C/c2ccccc2F)cc1OC [Compound 28, N-[4-Bromo-2-(2-fluoro-benzylidene-hydrazinocarbonyl)-phenyl]-3,4-dimethoxy-benzamide] | 5.12 |
| COc1ccc(C(=O)Nc2ccc(Br)cc2C(=O)N/N=C/c2ccccc2C)cc1OC [Compound 30, N-[4-Bromo-2-(2-methyl-benzylidene-hydrazinocarbonyl)-phenyl]-3,4-dimethoxy-benzamide] | 7.86 |
| COc1ccc(C(=O)Nc2ccc(Br)cc2C(=O)N/N=C/c2cccc(C)c2)cc1OC [Compound 31, N-[4-Bromo-2-(3-methyl-benzylidene-hydrazinocarbonyl)-phenyl]-3,4-dimethoxy-benzamide] | 0.58 |
| COc1ccc(C(=O)Nc2ccccc2C(=O)N/N=C/c2ccc(F)c(Cl)c2)cc1OC [Compound 32, N-[2-(3-Chloro-4-fluoro-benzylidene-hydrazinocarbonyl)-phenyl]-3,4-dimethoxy-benzamide] | 1.95 |
| COc1ccc(C(=O)Nc2ccccc2C(=O)N/N=C/c2ccc(OC(F)(F)F)cc2)cc1OC [Compound 33, 3,4-Dimethoxy-N-[2-(4-trifluoromethoxy-benzylidene-hydrazinocarbonyl)-phenyl]-benzamide] | 15 |
| COc1ccc(/C=N/NC(=O)c2ccccc2NC(=O)c2ccc(OC)c(OC)c2)cc1Br [Compound 34, N-[2-(3-Bromo-4-methoxy-benzylidene-hydrazinocarbonyl)-phenyl]-3,4-dimethoxy-benzamide] | 1.5 |

Same assay, conditions: phosphate uptake, oocytes expressing rat NaPi-2b; 300 μM, determined from inhibition curve

| Structure (SMILES) | inhibition at 300 µM [%] |
| --- | --- |
| COc1ccc(C(=O)Nc2ccccc2C(=O)N/N=C/c2ccccc2F)cc1OC [Compound 2, N-[2-(2-Fluoro-benzylidene-hydrazinocarbonyl)-phenyl]-3,4-dimethoxy-benzamide] | 77.3 |
